US6472145B2, “Method and composition for modulating amyloidosis” (priority 1998, dated 2002)
Where two headings read alike, the source gives them in different places.

How the values were obtained:
[1] = test system: mitochondrial membrane potential; conditions: 1 μM FCCP; cited from earlier work
K695 cells [2] = experiment: Lysosomal function: Lysosensor Yellow/Blue DND-160 uptake; format: cell-based, Human; conditions: FCCP 5 μM and 500 nM, baf A1 1 μM, NH4Cl 20 mM, 4 hrs
Protocol: (§1) Endosomal function was assessed by the fluorometric quantitation of the receptor-mediated uptake of both Texas Red and fluoroscein labelled transferrin (Molecular Probes, Eugene, Oreg.)(33-35). K695 cells were maintained as exposed to various treatments as mentioned with the exception that cells were plated at a density 200,000 cells/well in 24-well plates (Corning™). Twenty-four hours after plating, cells were exposed to various treatments in DMEM supplemented with sodium pyruvate (1 mM) and 10% fetal bovine serum. At the same time as drug exposures, both transferrin-Texas Red (Tf-Tx) and transferrin-fluoroscein (Tf-F) (10 μl/ml media of 5 mg/ml stocks in PBS) were added to each well and incubated for 4 hours at 37° C. Each well was then gently washed three times with warm media and uptake of fluorescent probes quantitated at 37° C. using a Cytofluor™ 2350 fluorometric plate reader (Millipore, Mississauga, ON). Quantitation of the non-pH-dependent Tf-Tx fluorescence and the pH-dependent Tf-F fluorescence was determined using excitation filters of 590 nm (bandwidth=20 nm); 485 nm (bandwidth=20 nm) and emission filters of 645 nm (bandwidth=40 nm); 530 nm (bandwidth=25 nm), respectively. Similarly, Lysosomal function was assayed by the uptake of the fluorescent probe, Lysosensor™ Yellow/Blue DND-160 (Molecular Probes, Eugene, Oreg.)(36). Assay of Lysosensor™ uptake was performed in an identical manner to that of the fluorescent labelled transferrin conjugates with the exception that the addition of 10 μl/ml media of Lysosensor™ was taken from a 1 mM stock solution in DMSO. Quantitation of the non-pH-dependent blue fluorescence and the pH-dependent yellow fluorescence was determined using an excitation filter of 360 nm (bandwidth=40 nm) and emission filters of 460 mn (bandwidth=40 nm) and 530 nm (bandwidth =25 nm), respectively. For all three probes examined, relative fluorescence was obtained from subtraction from sister wells which had not been exposed to fluorophores. […]

cellular ATP levels = conditions: 30 μM FCCP for 2 hours; cited from earlier work
K695sw cells [3] = experiment: Quantification of cellular ATP levels (luciferase/luciferin); format: cell-based, Human; conditions: various concentrations, 30 minutes or 4 hours
Protocol: 20 μl aliqouts of ATP standards and samples were then assayed for ATP content using a luciferase/luciferin ATP determination kit (A-6608, Molecular Probes, Eugene, Oreg.). ATP-dependent luminescence was quantified using an Optocomp® II luminometer (MGM Instruments, Hamden, Conn.) and ATP levels were determined by extrapolation from a standard curve. […] As a positive control, the effect of combined treatment with various concentrations of sodium azide and 2-deoxy-D-glucose (NaA/DG) was also examined in these studies.

K695 cells [4] = experiment: Endosomal function: uptake of Tf-Tx and Tf-F labelled transferrin; format: cell-based, Human; conditions: 4 hrs; for impairment of endosomal function (decrease in Tf-Tx and Tf-F signals): baf A1 1 μM, NH4Cl 20 mM
Protocol: as §1

[5] = test system: wild-type APP695 (K695 cells); conditions: 4 hours
Protocol: (§2) Human embryonic kidney (HEK) 293 cells stably transfected with either wild-type APP695 (K695 cells) or APP carrying the AD-linked double “Swedish” mutation (K695sw cells)(30) were cultured in DMEM supplemented with sodium pyruvate (1 mM) and 10% fetal calf serum as previously described (31). Cells were plated at 1,000,000 cells per well in 35 mm^2 culture dishes (Corning™) 24 hours prior to drug exposure. Preceding the addition of drugs, cultures are washed once with warm PBS (37° C.) and then exposed to various treatments in DMEM supplemented with sodium pyruvate (1 mM). Cultures were then exposed to either control media, vehicle (0.05% ethanol), or varying concentrations of FCCP (5 μM, 500 nM, 50 nM). Either 30 minutes or 4 hours after the addition of drugs, the media was removed, the cultures washed once with ice-cold PBS, and then harvested in 100 μl of ice-cold lysis buffer containing 20 mM MOPS (pH 7.2), 5 mM EDTA, 0.01% NP-40, 75 mM β-glycerol phosphate, […], […], 50 mM phosphatase substrate, […], and 1 mg/ml each of leupeptin, aprotinin and pepstatin.
(§3) To examine extracellular APP fragments, the media was retained and centrifuged at 4° C. for 10 min at 16,000 X g to remove cellular debris. Extracellular protein was then precipitated by 10% trichloroacetic acid as previously described (31). Subsequently, secreted APPsα was determined by 10% Tris-Glycine SDS-PAGE Western Blot analysis using the monoclonal antibody WO-2, generated against the first 16 amino acids of the N-terminal region of Aβ (32). Similarly, extracellular Aβ release was examined by 16% Tris-Tricine SDS-PAGE Western Blot analysis using the WO-2 antibody (32). For examination of intracellular APP fragments, cultures were harvested in ice-cold lysis buffer and then sonicated for 8 seconds on ice. Cellular protein levels were quantified using the BCA protein assay (Pierce, Rockford, Ill.) and 10 μg of cellular protein were then separated by either 10% Tris-Glycine or 16% Tris-Tricine SDS-PAGE. Intracellular C100 and total APP were quantitated, respectively, by 16% Tris-Tricine Western Blot analysis using the WO-2 antibody and 10% Tris-Glycine Western Blot analysis using an anti-APP N-terminal antibody (22C11, Boehringer Mannheim, Laval, QC). A diagram of the catabolic fragments of APP and the epitopes to which each antibody binds is depicted in FIG. 1. […] The wavy line represents the plasma membrane. The enzyme α-secretase (α-left) cleaves APP within the Aβ sequence (represented by the heavy line), resulting in release of the ectodomain fragment known as APPsα. The enzymes β and γ secretase (β, γ, right) sequentially cleave APP on either side of the Aβ sequence. β secretase cleavage results in the release of the ectodomain fragment known as APPsβ and production of the cellular fragment known as C100; following γ-secretase cleavage, extracellular Aβ is released. Probing the cellular fraction with antibody 22C11 identifies total cellular APP. Probing the cellular fraction with WO-2 identifies C100 (distinguished by molecular weight). Probing the extracellular fraction with WO-2 identifies both APPsα and Aβ (distinguished by molecular weight).
(§4) Cellular (C100 and total APP) and extracellular (APPsα and Aβ ) APP catabolic fragments were separated using SDS PAGE with either 10% Tris-Glycine (for APPsα and total APP) or 16% Tris-Tricine (for C100 and Aβ) gels. Following electrophoretic separation, proteins were transferred to nitrocellulose membranes and probed with either the monoclonal antibody WO-2 to detect C100, APPsα and Aβ, or 22C11 to detect total cellular APP. Immunoreactive bands were visualized using ECL detection (Amersham, Oakville, ON) and analyzed by standard autoradiographic and densitometric techniques as described (31).

[6] = test system: APP carrying the AD-linked double "Swedish" mutation (K695sw cells); conditions: for Aβ release: FCCP 5 μM, 500 nM, 50 nM
Protocol: as §2, §3, §4

K695sw cells [7] = conditions: 5 μM, 500 nM or 50 nM, 24 hours
Protocol: Cell viability was quantified based on the exclusion of the membrane impermeant probe, YO-PRO (Molecular Probes, Eugene, Oreg.). K695sw cells were maintained and exposed to vehicle or various concentrations of FCCP as described above with the exception that cells were plated at a density of 20,000 cells/well in 96-well plates (Falcon®). Twenty-four hours after plating, cells were exposed to various treatments in DMEM supplemented with sodium pyruvate (1 mM) and 10% fetal bovine serum. At the same time as drug exposures, YO-PRO (4 μM) was added to each well and its uptake quantified every 30 minutes for 1 day at 37° C. using a Cytofluor™ 2350 fluorometric plate reader (Millipore, Mississauga, ON). As a positive control, all wells were exposed to 0.1% Triton X-100 at the end of the experiment.

APP = conditions: background; NH4Cl at high concentrations; cited from earlier work
K695sw cells [8] = conditions: previous studies; cited from earlier work
[9] = test system: cells expressing wild-type APP (K695 cells); conditions: previous studies; cited from earlier work

N#CC(C#N)=NNc1ccc(OC(F)(F)F)cc1 [FCCP, carbonyl cyanide p-(trifluoromethoxy)phenylhydrazone]
mitochondrial membrane potential [1]: sufficient to alter mitochondrial membrane potential | lysosomal function (Lysosensor fluorescence) (K695 cells [2]): reductions in lysosomal function, albeit not as profound | cellular ATP levels (cellular ATP levels): sufficient to modestly decrease cellular ATP levels | cellular ATP levels (K695sw cells [3]): did not alter cellular ATP levels at any of the concentrations or time points measured | endosomal functioning (Tf-Tx and Tf-F signals) (K695 cells [4]; FCCP 5 μM and 500 nM): did not significantly alter endosomal functioning | APPsα production [5]: marked concentration-dependent decrease in APPsα production | Aβ production [5]: clearly inhibited Aβ production in a concentration-dependent manner | maturation of APP [5]: unaffected | total levels of cellular APP [5]: unaffected | production of the ectodomain fragment APPsα (APPsα release) ([6]; 30 min and 4 hours): only affected by 4 hour exposure to 5 μM FCCP | formation of the C100 fragment (cellular C100) ([6]; 4 hours): concentration-dependent decrease in the formation of the C100 fragment | maturation of APP via N'/O' linked glycosylation ([6]; 4 hours): neither total cellular levels of APP nor the maturation of APP via N′/O′ linked glycosylation were affected | total cellular levels of APP ([6]; 4 hours): neither total cellular levels of APP nor the maturation of APP via N′/O′ linked glycosylation were affected | Aβ release ([6]; 30 min): concentration-dependent decrease in Aβ release | Aβ release ([6]; 4 hours): decreases in Aβ release were even more pronounced | cell death as measured by membrane exclusion (YO-PRO) (K695sw cells [7]): no increase in cell death

CC[C@@]1([C@@H]2O[C@@H]([C@H]3O[C@@](O)(CO)[C@H](C)C[C@@H]3C)C[C@@H]2C)CC[C@H]([C@]2(C)CC[C@]3(C[C@H](O)[C@@H](C)[C@@H]([C@@H](C)[C@@H](OC)[C@H](C)C(=O)O)O3)O2)O1 [monensin]
APP proteolytic processing / APP catabolism (APP): decrease APP proteolytic processing

Cl.N [NH4Cl, ammonium chloride]
lysosomal function (Lysosensor fluorescence) (K695 cells [2]): profound reductions in lysosomal functioning | impairment of endosomal function (decrease in Tf-Tx and Tf-F signals) (K695 cells [4]): approximately 50% | APP proteolytic processing / APP catabolism (APP): decrease APP proteolytic processing

CO/C1=C\C(C)=C\[C@@H](C)[C@@H](O)[C@@H](C)C/C(C)=C/C=C/[C@H](OC)[C@@H]([C@@H](C)[C@@H](O)[C@H](C)[C@@]2(O)C[C@@H](O)[C@H](C)[C@@H](C(C)C)O2)OC1=O [baf A1, bafilomycin A1]
lysosomal function (Lysosensor fluorescence) (K695 cells [2]): profound reductions in lysosomal functioning | Aβ production (K695sw cells [8]): reduced Aβ production | impairment of endosomal function (decrease in Tf-Tx and Tf-F signals) (K695 cells [4]): approximately 50% | Aβ production [9]: lack of effect | APP proteolytic processing / APP catabolism (APP): alterations in APP catabolism which are both cell-type and APP mutation specific
